From patent US9181253B2 (The United States of America, as represented by the …, priority 2008, dated 2015)
“And” between values parts separate entries of the source, which are not always exact repeats. Identical values can stand only once. Like-named read-outs stand apart in the source and are kept apart here. Marks after values point to notes of the source that are not given here.

Key:
[1] = tested on: seizures induced by 6 Hz corneal stimulation in mice; assay: 6 Hz minimal clonic seizure test; format: in vivo; conditions: for 6 Hz model ED50 / ED50: mice, i.p., measured at 1 h post injection; for ED50: Mus musculus, ip, read-out: 6 Hz model ED50
Experimental: (§1) For the MES and 6 Hz tests, a drop of anesthetic/electrolyte solution (0.5% tetracaine hydrochloride in 0.9% saline) was applied to the eyes of each animal prior to placement of the corneal electrodes. The electrical stimulus in the MES test was 50 mA, 60 Hz, for mice. Abolition of the hindleg tonic extensor component of the seizure was used as the endpoint.
The ability of the test substance to prevent seizures induced by 6 Hz corneal stimulation (32 mA, 3 sec duration) in mice was evaluated at a convulsive current that evokes a seizure in 97% of the population tested (CC97). Six Hz seizures are characterized by a minimal clonic phase that is followed by stereotyped, automatistic behaviors described originally as being similar to the aura of human patients with partial seizures. Toman, J. E. et al., Tex. Rep.
Animals not displaying this behavior were considered protected.

MES seizures in mice = assay: Maximal electroshock (MES) seizure test; format: in vivo; conditions: i.p.
Experimental: The electrical tests used were the maximal electroshock (MES) seizure test, the 6 Hz minimal clonic seizure test, and the corneal kindled mouse test. The chemical test was the s.c. metrazol seizure tests. Time of peak effect (TPE) is deduced from data generated in initial qualitative test procedures. Five groups of 4 animals each are administered the test compound, and each group is tested at one of five different time intervals: ¼, ½, 1, 2 and 4 h. The time point at which the compound produces the most activity/toxicity was chosen as TPE.
as §1

[2] = tested on: s.c. metrazol seizures in mice; assay: s.c. metrazol (scMET) seizure test; format: in vivo; conditions: i.p.
Source text: In vivo anticonvulsant activity was established by both electrical and chemoconvulsant seizure tests which have been described previously. White, H. S., et al., Ital. J. Neurol. […] White, H. S. et al., Antiepileptic Drugs ([…].; Meldrum, B. S. ed), 1995, pp 99-110, Raven Press, New York.; and Smith, M., et al., Neurotherapeutics 2007, 4, 12-17. The electrical tests used were the maximal electroshock (MES) seizure test, the 6 Hz minimal clonic seizure test, and the corneal kindled mouse test. The chemical test was the s.c. metrazol seizure tests. Time of peak effect (TPE) is deduced from data generated in initial qualitative test procedures. […] The time point at which the compound produces the most activity/toxicity was chosen as TPE.

hA1AR [3] = target: T1, hA1AR (Homo sapiens (Human), UniProt P30542); conditions: values from literature references; read-out: Affinity Ki, nM A1; cited from earlier work
hA2AAR [4] = target: T2, hA2AAR (Homo sapiens (Human), UniProt P29274); conditions: values from literature references; read-out: Affinity Ki, nM A2A; cited from earlier work
hA3AR = hA3AR (Homo sapiens (Human), UniProt P0DMS8); conditions: values from literature references; read-out: Affinity Ki, nM A3; cited from earlier work
mice = assay: Minimal behavioral toxicity test, rotorod procedure; conditions: i.p.
hA1AR [5] = target: T1, hA1AR; assay: Radioligand membrane binding at hA1AR (Example 6)
Experimental: (§2) In addition, 800 μg/mL Geneticin and 500 μg/mL hygromycin were added to the A2A media and to the A1 and A3 media, respectively. […] The concentration of protein was determined using a BCA Protein Assay Kit from Pierce Biotechnology (Rockford, Ill.).
(§3) Radioligand binding assays at A1, A2A, and A3ARs were performed according to the procedures described previously.
(§4) All of the filters were washed 3 times with Tris-HCl, pH 7.5. […] Filters for A3AR binding were counted using a PerkinElmer Cobra II γ-counter.
(§5) Binding and functional parameters were calculated using Prism 5.0 software (GraphPAD, San Diego, Calif., USA). IC50 values obtained from competition curves were converted to Ki values using the Cheng-Prusoff equation. Data were expressed as mean±standard error.

hA2AAR [6] = target: T2, hA2AAR; assay: Radioligand membrane binding at hA2AAR (Example 6); conditions: HEK293 cells expressing hA2AAR; [3H]CGS21680; n = 3-5; read-out: Affinity Ki, nM A2A
Experimental: as §2, §3, §4, §5

hA1AR [7] = target: T1, hA1AR; assay: A1AR functional assay, inhibition of forskolin-stimulated cyclic AMP production in AR-transfected CHO cells; format: cell-based; conditions: FIG. 12, compared to full agonist NECA
corneal kindled mice = assay: Corneal-kindled mouse model of partial seizures; format: in vivo; conditions: qualitative test, 3 mg/kg, 1 hour post injection, n=4
Source text: Mice were kindled according to the methods described by […] and […]; […] Louis, Mo.) was applied to the cornea to ensure local anesthesia and good electrical conductivity. Stimulations were at least four hours apart. […] See Racine, R., Electroencephalogr. Clin. Neurophysiol. 1972, pp. 281-294. At the completion of the kindling acquisition, mice were permitted at least a 3-day stimulation-free period prior to any drug testing. Mice were stimulated once the day before drug testing to ensure they had achieved and maintained a kindled state. On the day of the drug study, corneal kindled mice (n=4, or 8) received a single i.p. dose of test compound. Mice were challenged with the corneal kindling stimulus of 3 mA for 3 seconds at TPE after test compound administration. Mice were scored as protected (seizure score of ≦3) or not protected, (seizure score ≧4) based on the Racine scoring.

in vivo = conditions: mouse, ip
human A3 receptor = human A3 receptor (Homo sapiens (Human), UniProt P0DMS8); assay: Binding assay at the human A3 receptor (Example 2); conditions: CHO cells expressing human A3AR; radioligand [125I]I-AB-MECA; n = 3-5; read-out: Affinity (Ki, nM) A3
human A3AR [8] = target: T3, human A3AR (Homo sapiens (Human), UniProt P0DMS8); assay: [35S]GTPγS binding assay, membranes of CHO cells expressing human A3AR; format: biochemical
human A3AR [9] = target: T3, human A3AR; assay: Cyclic AMP accumulation / adenylate cyclase assay, CHO cells expressing hA3AR; format: cell-based

T1 sequence (P30542 whole entry): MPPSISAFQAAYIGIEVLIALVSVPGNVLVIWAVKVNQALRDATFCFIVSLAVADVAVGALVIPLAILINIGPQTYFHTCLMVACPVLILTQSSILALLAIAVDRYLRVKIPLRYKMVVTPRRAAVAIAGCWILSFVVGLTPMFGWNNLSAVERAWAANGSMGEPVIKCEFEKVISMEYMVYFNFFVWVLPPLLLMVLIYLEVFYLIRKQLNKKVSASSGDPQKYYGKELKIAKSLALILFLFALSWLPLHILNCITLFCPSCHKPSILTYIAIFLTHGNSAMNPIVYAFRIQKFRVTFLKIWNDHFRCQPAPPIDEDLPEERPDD
T3 sequence (P0DMS8 whole entry): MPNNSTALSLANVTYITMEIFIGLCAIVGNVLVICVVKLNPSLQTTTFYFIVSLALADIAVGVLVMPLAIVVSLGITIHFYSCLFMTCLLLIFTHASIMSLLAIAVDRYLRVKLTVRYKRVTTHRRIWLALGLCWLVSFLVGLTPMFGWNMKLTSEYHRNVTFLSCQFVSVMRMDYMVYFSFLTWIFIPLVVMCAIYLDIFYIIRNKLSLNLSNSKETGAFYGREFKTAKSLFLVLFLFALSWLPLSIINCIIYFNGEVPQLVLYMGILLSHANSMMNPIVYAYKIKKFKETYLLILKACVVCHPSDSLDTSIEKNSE
T2 sequence (P29274 whole entry): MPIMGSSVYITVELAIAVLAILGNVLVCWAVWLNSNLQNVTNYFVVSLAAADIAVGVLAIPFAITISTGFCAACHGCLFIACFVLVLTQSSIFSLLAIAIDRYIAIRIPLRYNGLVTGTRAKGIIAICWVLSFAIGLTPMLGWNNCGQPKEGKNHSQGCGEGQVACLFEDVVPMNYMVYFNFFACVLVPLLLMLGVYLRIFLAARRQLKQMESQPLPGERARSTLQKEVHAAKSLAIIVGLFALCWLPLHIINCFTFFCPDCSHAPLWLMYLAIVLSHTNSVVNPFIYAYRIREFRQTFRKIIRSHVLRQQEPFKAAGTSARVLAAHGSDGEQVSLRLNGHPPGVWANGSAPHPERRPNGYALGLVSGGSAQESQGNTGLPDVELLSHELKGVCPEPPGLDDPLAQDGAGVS
Sequence of hA3AR (P0DMS8 whole entry): as the sequence (P0DMS8 whole entry) above
Sequence of human A3 receptor (P0DMS8 whole entry): as above

With `NCCNC(=O)Cc1ccc(NC(=O)Cc2ccc(Nc3ncnc4c3ncn4[C@@H]3O[C@H](CO)[C@@H](O)[C@H]3O)cc2)cc1` [Compound 237] the “6 Hz model ED50” value [1] was 0.03^c mg/kg, the “MES model, number of animals protected from convulsions” value (“MES model, number of animals protected” below) (MES seizures in mice; 2 mg/kg) was 4 out of 8 and the “scMET model, number of animals protected from convulsions” value (“scMET model, number” below) ([2]; 1 mg/kg) was 5 out of 8. For the same compound, the Ki (hA1AR [3]) was 10.4 ± 3.8 nM, the Ki (hA2AAR [4]) was 370 ± 100 nM and the Ki (hA3AR) was 12.4 ± 4.1 nM. The “Behavioral toxicity TD50” value (mice; measured at 4 h post injection) was 0.14^d mg/kg.
For `O[C@@H]1[C@H](O)[C@@H]2C[C@@H]2[C@H]1n1cnc2c(NC(C3CC3)C3CC3)nc(Cl)nc21` [Compound 121, (1R,2R,3S,4R,5S)-4-(2-Chloro-6-(dicyclopropylmethylamino)-9H-purin-9-yl)bicyclo[3.1.0]hexane-2,3-diol], the “times less potent at the A1AR in in vitro binding compared to 235b” value (hA1AR [5]) was ~40 times, the Ki (hA1AR [5]; CHO cells expressing hA1AR, [3H]R-PIA, n = 3-5, read-out: Affinity Ki, nM A1) was 47.9 ± 10.5 nM and the Ki (hA2AAR [6]) was 3950 ± 410 nM. The “agonist character at A1 AR, concentration-response curve of inhibition of cyclic AMP production” value (hA1AR [7]) was “full agonist”, the ED50 [1] was 2.74 mg/kg and the “ED50 in antiseizure models, times less potent compared to 235b” value ([1]; mouse, in vivo) was “about 20 times”. The “MES model, number of animals protected” value (MES seizures in mice; 3 mg/kg) was 1 out of 4, the “scMET model, number” value ([2]; 3 mg/kg) was “No protection” and the “corneal kindled mouse model, animals protected” value (corneal kindled mice) was “all animals (n=4) were protected”. The TD50 (in vivo) was > 10 mg/kg and the “Behavioral toxicity TD50” value (mice) was >10 mg/kg.
In the case of `OC[C@H]1O[C@@H](n2cnc3c(NC4CCCC4)nc(Cl)nc32)[C@H](O)[C@@H]1O` [Compound 235b, 2-chloro-N^6-cyclopentyladenosine], the ED50 [1] is reported as 0.12 mg/kg, the “6 Hz model ED50” value [1] is reported as 0.12^c mg/kg and the “MES model, number of animals protected” value (MES seizures in mice; 1 mg/kg) is reported as 1 out of 4 at. The “scMET model, number” value ([2]; 1 mg/kg) was 1 out of 4 and the “Behavioral toxicity TD50” value (mice; measured at 1 h post injection) was 0.84 mg/kg and 0.84^c mg/kg.
For `O[C@@H]1[C@H](O)[C@@H]2C[C@@H]2[C@H]1n1cnc2c(NCc3cccc(I)c3)nc(Cl)nc21` [Compound 7b, (1′R,2′R,3′S,4′R,5′S)-4′-[2-Chloro-6-(3-iodobenzylamino)purine]-2′,3′-O-dihydroxybicyclo-[3.1.0]hexane], the Ki (human A3 receptor) was 1.44 ± 0.6 nM, the IC50 (human A3AR [8]; read-out: IC50, inhibition of [35S]GTPγS binding stimulated by NECA, stimulation by 1 μM NECA) was 29.8 nM and the “% Efficacy A3” value (human A3AR [8]; stimulation measured by [35S]GTPγS binding assay) was 1.0 ± 3.2%. For the same compound, the EC50 (human A3AR [9]; partial agonism, read-out: EC50 at A3AR, cAMP assay) was 12 ± 1 nM and the Kb (human A3AR [9]; right shifts of response curves in the inhibition of adenylate cyclase by NECA, read-out: KB value, Schild analysis) was 8.9 nM.
